Results on 2 molecules are retold here after US10421989B2, “Methods and reagents for riboswitch analysis” (CORNELL UNIVERSITY, priority 2014, dated 2019).

Each structure is given as a SMILES string. Where “and” joins values, the source holds several entries; their conditions need not be identical. Identical values can stand only once.

The target of assay [1] is dye-labeled TPP riboswitch (WT/24-68). The assay can be described thus: smFRET titration of TPP, high-FRET state occupancy. It counts as binding, E. coli. Conditions: TPP 0 to 100 μM, 2 mM Mg2+; fit y=ymax(x/x+Kd); read-out: estimated Kd (apparent dissociation constant). Here is the method:
FIG. 20. Former tpp The dye-labeled TPP riboswitch (WT/24-68) binds TPP with nanomolar affinity. The affinity of TPP for the WT/24-68 labeled construct was estimated by titrating TPP from 0 to 100 μM in the presence of 2 mM Mg^2+, and quantifying the change in population of fully folded riboswitch molecules (high-FRET state occupancy) as a function of TPP concentration using single-molecule FRET measurements. Shown (black squares) is the average high-FRET state occupancy value (total area under the curve) obtained by fitting population FRET histograms to three Gaussian distributions (low-, intermediate- and high-FRET) over three independent experiments. Each value was normalized to the percent high-FRET state occupancy observed at […]. […]
smFRET data were acquired using a prism-based total internal reflection microscope, where the biotinylated TPP riboswitch was surface immobilized within PEG-passivated, strepatividin-coated quartz microfluidic devices. {Dave R, et al 2009} The Cy3 fluorophore was directly illuminated under 1.5 kW cm^−2 intensity at 532 nm (Laser Quantum). […] Fluorescence data were acquired using MetaMorph acquisition software (Universal Imaging Corporation) at a rate of 66.7 frames per second (15 ms integration). Fluorescence trajectories were selected from the movie files for analysis using automated image analysis software coded in Matlab (The MathWorks). […]

Assay [2] concerns the target truncated (ΔP3/A11AP) preQ1-II riboswitch aptamer construct. The assay is described as follows: 2-aminopurine fluorescence titration of preQ1 binding, truncated aptamer. Further details: species or system Streptococcus pneumoniae R6. As for the experimental part: (§1) FIG. 10. A11/2-Aminopurine (A11AP) fluorescence measurements of WT and ΔP3 preQ1-II riboswitch variants. (a) Secondary structure of the WT/A11AP (left) and ΔP3/A11AP (right) preQ1-II variant. (b) Qualitative fluorescence response upon Mg^2+ (4 mM) and subsequent preQ1 addition (10 μM) (λex=308 nm; detection at 372 nm). (c) Fluorescence emission spectra (λex=308 nm) from 320 to 480 nm for each preQ1 concentration. (d) Normalized 2AP fluorescence intensity plotted as a function of preQ1 concentrations, changes in fluorescence (F-F0) were normalized to the maximum fluorescence measured in the absence of ligands. […]
(§2) Experiments were measured on a Cary Eclipse spectrophotometer (Varian) equipped with a peltier block and a magnetic stirring device. […] Spectra were recorded from 320 to 500 nm with excitation wavelength 308 nm and scan rate of 120 nm/min. The apparent binding constants KD were determined by following the increase in fluorescence after each titration step via integration of the area between 330 and 450 nm. Changes in fluorescence (F-F0) were normalized to the maximum fluorescence measured in the absence of ligand. Measurements for each titration step was repeated at least two times and the mean of the normalized fluorescence intensity was plotted against ligand concentration. The final KD value is the arithmetic mean, determined from two to three independent titration experiments.

The target in assay [3] is wild-type (A11AP) preQ1-II riboswitch aptamer construct. The assay is described as follows: 2-aminopurine fluorescence titration of preQ1 binding, wild-type aptamer. Further details: species or system Streptococcus pneumoniae R6. The following applies: 0.5 μM RNA, 50 mM KMOPS, 100 mM KCl, Mg2+, 25° C.; 2-aminopurine at position A11. As for the experimental part: as §1, §2

In the case of `Cc1ncc(C[n+]2csc(CCO[P@](=O)(O)OP(=O)(O)O)c2C)c(N)n1` [TPP, thiamine pyrophosphate], the Kd in assay [1] was ~0.1 µM and 0.115 µM.
Take `NCC1C=Nc2nc(N)[nH]c(=O)c21` (stereo not shown) [preQ1, 7-aminomethyl-7-deazaguanine]: the Kd was determined as 4.2 ± 0.1 µM in assay [2] (0.5 μM RNA, 50 mM KMOPS, 100 mM KCl, Mg2+, 25° C., 2-aminopurine at position A11) and 0.43 ± 0.01 µM in assay [3]. Moreover, the “decrease in affinity compared to the wild-type (A11AP) aptamer construct” value in assay [2] (truncated construct vs wild-type) is 10 fold.
